Patent publication US20240209014A1, “NOVEL SPINOSYN PRODRUGS” (Acies Bio d.o.o., priority 2021, published 2024)
Where two headings read alike, the source gives them in different places.

How the values were obtained:
[1] = Stability of J1A, J1B and J7 at different pH values (LC-MS); format: physicochemical
Experimental: Stability of compounds J1A, J1B and J7 was evaluated at different pH values. Differential stability/conversion to the active ingredient is expected to result in condition-specific activation and thereby to higher specificity towards target pests.
Stock solutions of the compounds were prepared at concentration of 0.1 mol/L. 10 μL of the stock solutions were transferred to 0.75 ml of the buffer solutions with pH values of 4, 5, 9 and 11. The resulting solutions were incubated for 10 minutes and 3 and 24 h. After specified times samples were analyzed using LC-MS. The compounds J1A, J1B, J7 and the active compound butenyl spinosyn were quantified. It is seen that the three compounds are converted to the active form preferably in alkaline conditions.

[2] = tested on: larvae of Ostrinia nubilialis (development stage L1); assay: Insecticide efficacy, corn leaf dip, Henderson-Tilton method; format: in vivo; settings: for insecticidal activity on Ostrinia nubilialis larvae (in words): 0.1 and 0.3 μg/mL, leaf dip; for % efficacy (Henderson-Tilton): Ostrinia, foliar
Experimental: Insecticide activities of the compounds of this invention were assessed in comparison with commercially available samples of spinosad (LGC (Dr. Ehrenstorfer); Product code: DRE-C16972830) and spinetoram (LGC (Dr. Ehrenstorfer); Product code: DRE-C16972770). Solutions of spinosyn compounds were prepared by adding 0.05% Tween 80, lowering pH to 5.95 and sonicating. Two concentrations of each compound were used, 0.1 μg/ml and 0.3 μg/mL, with each condition tested in four parallels.
Freshly collected corn leaves were dipped into the prepared solutions. After dipping leaves were left to dry at room temperature for 1 hour. Each dry leaf was then infested with 4 larvae of Ostrinia nubilialis (development stage L1), and the experimental device was incubated at 21° C.-23° C. for 24 h in order to optimize insect development. At three timings post infestation (1 day, 3 days and 6 days), the insecticide efficacy is evaluated from the number of living larvae using the Henderson-Tilton method. Untreated control was integrated for normalization and validation of larvae health.

Kinetic solubility assay = format: physicochemical; settings: 25 °C, kinetic from dmso stock, dose conc 200 μM, 25±2° C.
Experimental: Solubility of the compounds of the invention was assessed using kinetic solubility assay and compared to solubility of butenyl spinosyn. Stock solutions of spinosyn compounds were prepared in DMSO at mM concentration). 10 uL of the stock solutions were added into 490 of in K.S. 5.4 buffer of pH 5.4 (80 mM phosphoric acid, acetic acid, boric acid buffer, adjusted the pH to pH 5.4 with 1 N HCl and 1N NaOH) or K.S. 7.4 buffer with pH of 7.4 (80 mM phosphoric acid, acetic acid, boric acid buffer, adjusted the pH to pH 7.4 with 1 N HCl and 1N NaOH). The solutions were incubated with shaking at room […] temperature (25±2° C.) for 24 hours. 200 uL of each solution were then transferred into a new MultiScreen filter plate (Membrane of polycarbonate) and filtered by millipore vacuum manifold, and the filtrate was collected. The concentrtions of tested compounds in the filtered samples were analyzed by HPLC analysis calibrated by a standard curve generated by injection of 3 standard solutions of the relevant compound with concentrations of 1, 20, 200 μM.

[3] = tested on: honey bees (Apis melifera carnica, Pollman 1879); assay: Single dose acute oral toxicity test on adult worker honey bees; format: in vivo
Experimental: Toxicity of the compounds of this invention towards honey bees (Apis melifera carnica, Pollman 1879) was assessed in comparison with commercially available samples of spinosad (LGC (Dr. Ehrenstorfer); Product code: DRE-C16972830) and the naturally produced compound butenyl spinosyn alpha 1. Solutions of spinosyn compounds were prepared in 100 mM ammonium acetate, pH=5, and later diluted in 50% (500 g/L) sucrose solution in water to final concentrations. Two final concentrations were used for each compound, 7.76 μmol/L and 15.53 μmol/L.
Single dose acute oral toxicity tests were conducted on adult worker bees according to previously described standard methods (Medrzycki at el., (2013)). Each compound and condition were tested in two parallels. Briefly, each parallel experiment consisted of 5 cages with 20 honey bees per cage. […] After uptake of the solutions honey bees were supplied with standard 50% sucrose solution and observed at 24 h and 48 h and the number of dead and live bees was estimated.
Ammonium acetate solution with pH 5 was used as the negative control.

[4] = 24 h, read-out: % Efficacy, dose 0.1 μg a.i./ml, 1 day post infestation
[5] = 24 h, read-out: % Efficacy, dose 0.3 μg a.i./ml, 1 day post infestation
[6] = 72 h, read-out: % Efficacy, dose 0.1 μg a.i./ml, 3 days post infestation
[7] = 72 h, read-out: % Efficacy, dose 0.3 μg a.i./ml, 3 days post infestation
[8] = 144 h, read-out: % Efficacy, dose 0.1 μg a.i./ml, 6 days post infestation
[9] = 144 h, read-out: % Efficacy, dose 0.3 μg a.i./ml, 6 days post infestation
[10] = pH 5.4, aqueous buffer, K.S. 5.4 buffer, read-out: Kinetic Solubility pH = 5.4
[11] = pH 7.4, aqueous buffer, K.S. 7.4 buffer, read-out: Kinetic Solubility pH = 7.4
[12] = single oral dose 0.078 nmol/bee, 24 h after application
[13] = single oral dose 0.078 nmol/bee, 48 h after application
[14] = single oral dose 0.155 nmol/bee, 24 h after application
[15] = single oral dose 0.155 nmol/bee, 48 h after application

Row | SMILES | BuSPN Area % (active butenyl spinosyn released) ([1]; buffer pH 4, 0.16 h) [%] | Compound (J1A/J1B/J7) Area % remaining ([1]; buffer pH 4, 0.16 h) [%] | BuSPN Area % (active butenyl spinosyn released) ([1]; buffer pH 4, 3 h) [%] | Compound (J1A/J1B/J7) Area % remaining ([1]; buffer pH 4, 3 h) [%] | BuSPN Area % (active butenyl spinosyn released) ([1]; buffer pH 4, 24 h) [%] | Compound (J1A/J1B/J7) Area % remaining ([1]; buffer pH 4, 24 h) [%] | BuSPN Area % (active butenyl spinosyn released) ([1]; buffer pH 5, 0.16 h) [%] | Compound (J1A/J1B/J7) Area % remaining ([1]; buffer pH 5, 0.16 h) [%] | BuSPN Area % (active butenyl spinosyn released) ([1]; buffer pH 5, 3 h) [%] | Compound (J1A/J1B/J7) Area % remaining ([1]; buffer pH 5, 3 h) [%] | BuSPN Area % (active butenyl spinosyn released) ([1]; buffer pH 5, 24 h) [%] | Compound (J1A/J1B/J7) Area % remaining ([1]; buffer pH 5, 24 h) [%] | BuSPN Area % (active butenyl spinosyn released) ([1]; buffer pH 9, 0.16 h) [%] | Compound (J1A/J1B/J7) Area % remaining ([1]; buffer pH 9, 0.16 h) [%] | BuSPN Area % (active butenyl spinosyn released) ([1]; buffer pH 9, 3 h) [%] | Compound (J1A/J1B/J7) Area % remaining ([1]; buffer pH 9, 3 h) [%] | BuSPN Area % (active butenyl spinosyn released) ([1]; buffer pH 9, 24 h) [%] | Compound (J1A/J1B/J7) Area % remaining ([1]; buffer pH 9, 24 h) [%] | BuSPN Area % (active butenyl spinosyn released) ([1]; buffer pH 11, 0.16 h) [%] | Compound (J1A/J1B/J7) Area % remaining ([1]; buffer pH 11, 0.16 h) [%] | also measured
1 | CC/C=C/[C@H]1CCC[C@H](OC2CCC([N+](C)(C)COC(=O)C(C)(C)C)C(C)O2)[C@@H](C)C(=O)C2=C[C@@H]3[C@@H](C=C[C@@H]4C[C@@H](OC5OC(C)C(OC)C(OC)C5OC)C[C@@H]34)[C@@H]2CC(=O)O1 (stereo partly drawn) [Compound J1A] | 0.0 | 5.7 | 0.0 | 2.0 | 0.0 | 0.1 | 0.1 | 99.4 | 0.1 | 99.3 | 1.7 | 97.4 | 32.6 | 66.4 | 71.8 | 26.6 | 46.6 | 0.0 | 80.7 | 18.4 | BuSPN Area % (active butenyl spinosyn released) ([1]; buffer pH 11, 3 h): 98.0%; Compound (J1A/J1B/J7) Area % remaining ([1]; buffer pH 11, 3 h): 0.5%; insecticidal activity on Ostrinia nubilialis larvae (in words) [2]: extremely potent insecticidal activity; % efficacy (Henderson-Tilton) [2, 4]: 2%; % efficacy (Henderson-Tilton) [2, 5]: 0%; % efficacy (Henderson-Tilton) [2, 6]: 44%; % efficacy (Henderson-Tilton) [2, 7]: 63%; % efficacy (Henderson-Tilton) [2, 8]: 89%; % efficacy (Henderson-Tilton) [2, 9]: 100%; solubility kinetic at 24 h (Kinetic solubility assay; [10]): 189 µM; solubility kinetic at 24 h (Kinetic solubility assay; [11]): 143 µM; % of surviving honey bees [3, 12]: 95%; % of surviving honey bees [3, 13]: 92%; % of surviving honey bees [3, 14]: 89%; % of surviving honey bees [3, 15]: 75%
2 | CC/C=C/[C@H]1CCC[C@H](OC2CCC([N+](C)(C)COC(=O)OC(C)C)C(C)O2)[C@@H](C)C(=O)C2=C[C@@H]3[C@@H](C=C[C@@H]4C[C@@H](OC5OC(C)C(OC)C(OC)C5OC)C[C@@H]34)[C@@H]2CC(=O)O1 (stereo partly drawn) [Compound J7] | 0.0 | 19.2 | 0.0 | 4.1 | 0.0 | 3.8 | 0.2 | 99.2 | 0.3 | 99.7 | 0.5 | 99.2 | 44.4 | 54.2 | 90.8 | 7.6 | 93.8 | 0.6 | 93.1 | 6.7 | BuSPN Area % (active butenyl spinosyn released) ([1]; buffer pH 11, 3 h): 99.8%; Compound (J1A/J1B/J7) Area % remaining ([1]; buffer pH 11, 3 h): 0.0%; BuSPN Area % (active butenyl spinosyn released) ([1]; buffer pH 11, 24 h): 99.4%; Compound (J1A/J1B/J7) Area % remaining ([1]; buffer pH 11, 24 h): 0.0%; insecticidal activity on Ostrinia nubilialis larvae (in words) [2]: extremely potent insecticidal activity; % efficacy (Henderson-Tilton) [2, 4]: 31%; % efficacy (Henderson-Tilton) [2, 5]: 44%; % efficacy (Henderson-Tilton) [2, 6]: 73%; % efficacy (Henderson-Tilton) [2, 7]: 91%; % efficacy (Henderson-Tilton) [2, 8]: 91%; % efficacy (Henderson-Tilton) [2, 9]: 100%; solubility kinetic at 24 h (Kinetic solubility assay; [10]): 192 µM; solubility kinetic at 24 h (Kinetic solubility assay; [11]): 145 µM; % of surviving honey bees [3, 12]: 96%; % of surviving honey bees [3, 13]: 94%; % of surviving honey bees [3, 14]: 85%; % of surviving honey bees [3, 15]: 63%
